In test [1] the target is T1, M1 muscarinic acetylcholine receptor (Rattus norvegicus, UniProt P08482).
T1 construct: expressed in transfected cells
T1 sequence (P08482 1-460): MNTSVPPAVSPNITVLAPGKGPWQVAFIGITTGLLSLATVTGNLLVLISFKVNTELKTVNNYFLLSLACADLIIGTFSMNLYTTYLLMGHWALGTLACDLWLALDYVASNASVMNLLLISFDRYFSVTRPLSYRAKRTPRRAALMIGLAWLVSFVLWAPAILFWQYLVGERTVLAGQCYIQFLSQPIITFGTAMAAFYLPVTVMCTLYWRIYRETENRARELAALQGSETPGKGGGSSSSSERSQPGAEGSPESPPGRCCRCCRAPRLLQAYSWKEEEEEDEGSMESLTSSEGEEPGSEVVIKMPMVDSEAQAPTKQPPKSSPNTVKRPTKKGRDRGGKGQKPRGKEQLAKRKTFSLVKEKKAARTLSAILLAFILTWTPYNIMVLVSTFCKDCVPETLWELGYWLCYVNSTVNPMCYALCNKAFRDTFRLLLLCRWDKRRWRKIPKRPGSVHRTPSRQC
Kind of test: In vitro two-photon FRET response of M1-TN-XXL neurofluocytes to bath-applied neurotransmitters. In kind it is cell-based. The conditions noted are these: ACh applied at 10 nM to 10 μM via bath perfusion. An excerpt: The state of each cell is imaged with in vivo two-photon laser scanning microscopy (TPLSM). In another implementation, HEK293 cells were transfected with the Ca^2+-coupled M1 muscarinic receptor and the genetically encoded FRET-based Ca^2+ biosensor TN-XXL. In the presence of acetylcholine (ACh), a M1-mediated Ca^2+ increase is transduced by TN-XXL into a FRET-based optical signal.
ACh-neurofluocytes expressing a muscarinic receptor and fluorescent protein. […] These cells are referred to here as M1-TN-XXL neuro-fluocytes. HEK-293 cells were transduced with lentiviruses modified to carry the M1 muscarinic acetylcholine receptor or the TN-XXL FRET intracellular calcium indicator as transgenes. Clonal cells were selected subsequently based on the highest response to acetylcholine in vitro.
M1-TN-XXL neurofluocytes. ACh-neurofluocytes were tested in vitro for their sensitivity to acetylcholine. […] FIG. 2a provides a diagram of the detection mechanism.

In test [2] the target is T2, ionotropic receptor 5-HT3A (Rattus norvegicus, UniProt P35563).
T2 construct: expressed in transfected cells; host or cells: HEK cells, transient co-transfection with TN-XXL
T2 sequence (P35563 24-483): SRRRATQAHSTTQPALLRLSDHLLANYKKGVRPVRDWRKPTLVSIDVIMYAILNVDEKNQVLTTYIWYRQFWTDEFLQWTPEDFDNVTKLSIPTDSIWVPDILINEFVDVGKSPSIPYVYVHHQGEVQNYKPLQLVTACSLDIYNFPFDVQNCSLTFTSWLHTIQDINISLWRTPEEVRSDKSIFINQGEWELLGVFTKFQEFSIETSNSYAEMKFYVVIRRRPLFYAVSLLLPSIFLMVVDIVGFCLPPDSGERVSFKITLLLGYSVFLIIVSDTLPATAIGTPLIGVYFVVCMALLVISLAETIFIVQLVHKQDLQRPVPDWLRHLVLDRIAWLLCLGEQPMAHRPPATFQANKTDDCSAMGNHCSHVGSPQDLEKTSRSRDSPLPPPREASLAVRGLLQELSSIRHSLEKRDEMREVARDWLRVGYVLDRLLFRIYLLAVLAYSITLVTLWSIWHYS
Briefly: In vitro response of HEK cells transiently cotransfected with 5-HT3A and TN-XXL to bath-applied serotonin. The test is classed as cell-based. The note with it: 3-10 μm serotonin applied in the bath.

For a further test, the system named is muscarinic receptors. Briefly: Response of implanted neurofluocytes to NBM stimulation after intracerebral injection of antagonist.

Procedure for muscarinic receptors: Urethane-anesthetized rats were injected with HEK293 cells loaded with Calcium Green in the cerebral cortex and a bipolar stimulating electrode was implanted in NBM together with ECoG-recording electrodes to detect desynchronization in cerebral cortex upon NBM stimulation.
A similar set of experiments was conducted with stably transfected M1-TN-XXL neurofluocytes.

`N[C@@H](CCC(=O)O)C(=O)O` [glutamate]: in test [1], the “FRET response / sensitivity of ACh-neurofluocytes to neurotransmitter” value (shortened to “FRET response / sensitivity”) was “insensitive”. Still for that read-out and setting: for `NCCCC(=O)O` [GABA] the value was “insensitive”; for `NC[C@H](O)c1ccc(O)c(O)c1` [norepinephrine], “insensitive”. On to `NCCc1c[nH]c2ccc(O)cc12` [serotonin], for which the “response of 5-HT3A/TN-XXL cells” value in test [2] is listed as “responded robustly”. In addition, the “FRET response / sensitivity” value in test [1] is given as “insensitive”. With `CN1[C@@H]2CC[C@H]1C[C@@H](OC(=O)C(CO)c1ccccc1)C2` (stereo partly shown) [atropine], the “effect on responses of neurofluocytes to NBM stimulation” value in the test with muscarinic receptors was “abolished”. For `NCCc1ccc(O)c(O)c1` [dopamine], the “FRET response / sensitivity” value in test [1] is “insensitive”.
